Measurements taken from patent publication US20240082238A1, “COMPOSITIONS AND METHODS FOR TREATING CANCER” (UNIVERSITY OF IOWA RESEARCH FOUNDATION, priority 2021, published 2024).
Values joined by “and” are separate entries in the source; they are usually repeats but may differ in a detail not shown here. Identical values can stand only once. Like-named read-outs stand apart in the source and are kept apart here.

Legend:
Hec50co cells [1] = assay: Cell cycle assay (PI flow cytometry); type: cell-based, human; details: 24 h
Method: Cell Cycle assay. Hec50co cells were seeded at […] cells per well in 6-well plates for 48 h in complete medium. The medium was then removed and replaced with PTX (1, 5, and 10 nM), CIP2b (10 μM), combinations of PTX with CIP2b, or with a fresh complete medium. Cells were incubated with the treatments for 24 h, then the medium was removed, and the cells were washed twice with Dulbecco's Phosphate-Buffered Saline (DPBS 1×, ThermoFisher Scientific), trypsinized (0.4 mL/well), and collected by centrifugation (230 xg, 5 min). Cells were then fixed using 70% ethanol stored at 4° C. for 30 min, then incubated with 100 μg/mL RNase A in 2% v/v NP-40 Surfact-Amps® solution (0.5 mL/sample) for 30 min at 37° C. Then, PI (50 μg/mL, 0.5 mL/sample) was added prior to analysis by flow cytometry (FACScan, BD Biosciences) using CellQuest software (Ver. 3.3). The data were further analyzed by ModFit LT (Ver. 5.0) to calculate the percent of cells in each phase of the cell cycle (i.e., G0/G1, S, G2/M).
In vitro activity of CIP2b NPs. […] An equivalent quantity of blank NPs was also tested to account for the effect of the PLGA NPs alone without CIP2b. […] An equivalent quantity of blank NPs was also added, either alone or with PTX-OG. Samples were then analyzed using a flow cytometer, as described above.

Hec50co cells [2] = assay: Cytotoxicity assay (MTS), Hec50co cells; type: cell-based, human; details: 72 h; for IC50: Homo sapiens
Method: Cytotoxicity assay. Hec50co cells were seeded at 1500 cells per well in 96-well plates for 24 h in a complete medium. Later, the medium was removed and PTX, CIP2b, or CIP (all dissolved in DMSO and diluted in complete medium) were added to cells as either monotherapies or in combinations, and the plates were incubated for 72 hours. Then, the complete medium was removed and MTS reagent in the complete medium was added to wells, and the plates were incubated for 1-4 hours according to the manufacturer's protocol. Finally, the absorbance was recorded at 490 nm using a Spectra Max plus 384 Microplate Spectrophotometer (Molecular Devices, Sunnyvale, CA). Percentage cell viability was expressed as the average absorbance of the test group relative to that of the control group (untreated cells). The concentration that inhibits proliferation of 50% of cells compared to control (IC50) was calculated using GraphPad Prism (La Jolla, CA). Synergism was detected following the Chou-Talalay method (CI<1 indicates synergism) (Chou T C. Cancer research. 2010; 70(2):440-6, doi: 10.1158/0008-5472.CAN-09-1947) using CompuSyn software (Ver. 1.0). […]

human Topo IIα = biological target: T1, human Topo IIα (Homo sapiens, UniProt P11388); assay: Topoisomerase II inhibition assay (plasmid-based); type: biochemical; details: drug final concentration 100 μM; read-out: percentage of Topo II inhibition
T1 construct: purchased TopoGEN Inc. TG1001-1A
Method: Topoisomerase II inhibition assay. A plasmid-based Topo II assay (Cat. No. TG1001-1A, TopoGEN Inc., Buena Vista, CO) was performed according to the manufacturer's instructions. In this experiment, 1 μL of tested compounds (PTX, CIP, CIP2b, ETO) at a concentration of 2 mM was mixed with 4 μL of the reaction buffer (mixture of buffer A (0.5 M Tris-HCl (pH 8), 1.50 M NaCl, 100 mM MgCl2, 5 mM Dithiothreitol, 300 μg BSA/mL) and buffer B (10× ATP Buffer), and deionized water was added to make 18 μL solution. This was followed by adding 1 μL of catenated DNA and 1 μL of human Topo IIα (8 U/μL) (drug final concentration was 100 μM). Additionally, decatenated DNA (De-CT DNA) and catenated DNA (CT DNA)±Topo II were used as a control (i.e., not containing drugs). Moreover, relaxed DNA was added as another control in this assay. Similar to Topo I assay, samples were then incubated on a heating block set at 37° C. for 30 minutes. Then, the reaction was stopped by the addition of a 5× stop buffer. Samples were then loaded directly into the wells of a 1% agarose gel containing 1 μg/mL ethidium bromide. The gel was run at 150 V until the dye front had traveled approximately 5 cm (run time was approximately 2 h). The gel was then washed with deionized water for 30 minutes before imaging. The image was taken using an Invitrogen iBright CL1500 Imaging System. The intensity of the final bands in the gel was quantified using ImageJ, and the results are expressed as the percentage of Topo II inhibition.

[3] = Cytotoxicity assay (MTS) and bright-field microscopy, LLC-PK1-MDR1 cells; type: cell-based, porcine; details: pig, LLC-PK1-MDR1 cells (overexpressing P-gp), PTX alone, maximum concentration used 50 nM
Method: Cytotoxicity assay. Hec50co cells were seeded at 1500 cells per well in 96-well plates for 24 h in a complete medium. Later, the medium was removed and PTX, CIP2b, or CIP (all dissolved in DMSO and diluted in complete medium) were added to cells as either monotherapies or in combinations, and the plates were incubated for 72 hours. Then, the complete medium was removed and MTS reagent in the complete medium was added to wells, and the plates were incubated for 1-4 hours according to the manufacturer's protocol. Finally, the absorbance was recorded at 490 nm using a Spectra Max plus 384 Microplate Spectrophotometer (Molecular Devices, Sunnyvale, CA). Percentage cell viability was expressed as the average absorbance of the test group relative to that of the control group (untreated cells). […] Synergism was detected following the Chou-Talalay method (CI<1 indicates synergism) (Chou T C. Cancer research. 2010; 70(2):440-6, doi: 10.1158/0008-5472.CAN-09-1947) using CompuSyn software (Ver. 1.0). P-gp efflux transporter. Overexpression of the MDR1 gene, reflected in the abundance of the P-gp efflux pump, is one of the major reasons for PTX chemoresistance in cancer. In this study, LLC-PK1-WT and LLC-PK1-MDR1 cell lines were used. MTS assay and the PTX intracellular accumulation experiment were performed as previously described above.

T1 sequence (P11388 whole entry): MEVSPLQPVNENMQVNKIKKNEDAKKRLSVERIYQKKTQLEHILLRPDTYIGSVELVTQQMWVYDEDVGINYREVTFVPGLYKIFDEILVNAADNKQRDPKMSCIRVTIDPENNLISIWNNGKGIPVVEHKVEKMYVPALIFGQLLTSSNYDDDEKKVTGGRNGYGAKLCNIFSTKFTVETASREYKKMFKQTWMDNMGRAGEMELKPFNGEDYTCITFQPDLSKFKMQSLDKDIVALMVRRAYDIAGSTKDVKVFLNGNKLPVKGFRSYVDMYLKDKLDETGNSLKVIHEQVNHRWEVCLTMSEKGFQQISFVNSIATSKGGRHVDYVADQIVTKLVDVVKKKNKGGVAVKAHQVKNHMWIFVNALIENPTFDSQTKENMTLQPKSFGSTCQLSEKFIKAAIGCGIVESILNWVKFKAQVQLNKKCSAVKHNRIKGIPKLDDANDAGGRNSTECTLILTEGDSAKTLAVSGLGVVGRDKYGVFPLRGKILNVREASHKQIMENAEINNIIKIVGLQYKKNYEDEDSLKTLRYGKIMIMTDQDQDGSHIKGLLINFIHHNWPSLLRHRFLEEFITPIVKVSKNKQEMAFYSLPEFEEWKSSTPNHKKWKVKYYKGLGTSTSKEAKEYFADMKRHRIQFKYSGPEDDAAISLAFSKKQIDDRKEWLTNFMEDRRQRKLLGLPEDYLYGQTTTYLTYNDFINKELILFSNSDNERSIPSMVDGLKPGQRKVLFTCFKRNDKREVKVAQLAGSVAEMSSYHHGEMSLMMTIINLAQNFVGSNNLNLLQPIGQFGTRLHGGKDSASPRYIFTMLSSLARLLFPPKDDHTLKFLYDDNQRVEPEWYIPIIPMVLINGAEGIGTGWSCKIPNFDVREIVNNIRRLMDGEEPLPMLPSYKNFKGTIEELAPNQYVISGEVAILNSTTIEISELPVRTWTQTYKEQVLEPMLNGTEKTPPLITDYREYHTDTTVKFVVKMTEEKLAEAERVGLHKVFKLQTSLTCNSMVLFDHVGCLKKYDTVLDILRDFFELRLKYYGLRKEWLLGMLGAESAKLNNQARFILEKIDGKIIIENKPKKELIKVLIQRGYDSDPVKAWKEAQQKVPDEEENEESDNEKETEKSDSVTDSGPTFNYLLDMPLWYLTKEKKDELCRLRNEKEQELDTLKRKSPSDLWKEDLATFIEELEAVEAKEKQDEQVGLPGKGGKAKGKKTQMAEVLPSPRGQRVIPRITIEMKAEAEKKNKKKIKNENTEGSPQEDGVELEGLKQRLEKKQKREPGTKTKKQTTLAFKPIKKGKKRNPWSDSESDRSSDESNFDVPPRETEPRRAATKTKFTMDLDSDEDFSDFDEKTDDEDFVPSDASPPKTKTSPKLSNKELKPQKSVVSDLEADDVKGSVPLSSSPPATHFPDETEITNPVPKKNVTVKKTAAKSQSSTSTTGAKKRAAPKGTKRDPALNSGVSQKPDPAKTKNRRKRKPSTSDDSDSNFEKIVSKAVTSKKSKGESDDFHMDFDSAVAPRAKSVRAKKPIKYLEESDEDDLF

Question: For CC(=O)O[C@H]1C(=O)[C@@]2(C)[C@H]([C@H](OC(=O)c3ccccc3)[C@]3(O)C[C@H](OC(=O)[C@H](O)[C@@H](NC(=O)c4ccccc4)c4ccccc4)C(C)=C1C3(C)C)[C@]1(OC(C)=O)CO[C@@H]1C[C@@H]2O [PTX, paclitaxel], which “cell population at the G2/M phase” value (Hec50co cells [1]; 5 nM PTX) is on record?
Answer: approximately 46%

Question: And the “cell population at the G2/M phase” value (Hec50co cells [1]; 10 nM PTX)?
Answer: ~70% and 69.5%

Question: What about the survival (Hec50co cells [2]; 0.1 nM PTX alone) of the same compound?
Answer: 100%

Question: And the cell survival (Hec50co cells [2]; 5 nM PTX as single compound)?
Answer: about 80%

Question: And the IC50 (Hec50co cells [2]; 10 μM CIP2b added, read-out: IC50 value of PTX)?
Answer: 3.1 nM

Question: What about the IC50 (Hec50co cells [2]; 25 μM CIP2b added, read-out: IC50 value of PTX) of the same compound?
Answer: 2.15 nM

Question: And the IC50 (Hec50co cells [2]; PTX alone)?
Answer: 8.77 nM

Question: What about the inhibition at 100 µM (human Topo IIα) of the same compound?
Answer: 8%

Question: And the IC50 at 72 h [3]?
Answer: > 50 nM
